Source: ChEMBL document CHEMBL5154741, “Antibacterial alkylguanidino ureas: Molecular simplification approach, searching for membrane-based MoA” (Eur J Med Chem, 2022)
≈ marks a conversion by molar mass, not a printed value. Calls of active or inactive are those of the source. The rule behind the calls is not given here.

Key:
Enterobacter cloacae = assay: Antibacterial activity against Enterobacter cloacae VA-417/02 assessed as bacterial growth inhibition incubated for 18 hrs by CLSI based micro-dilution broth method; assay type: functional
Escherichia coli = assay: Antibacterial activity against Escherichia coli CCUG assessed as bacterial growth inhibition incubated for 18 hrs by micro-dilution broth method; assay type: functional
Lipid bilayer [1] = assay: Binding affinity to bacterial membrane mimic POPG large unilamellar vesicle assessed as hyperchromic shift at 125 uM measured after 1 hr by UV-Vis spectrophotometric analysis
Klebsiella pneumoniae [2] = assay: Antibacterial activity against pan drug-resistant Klebsiella pneumoniae S1-081Rb assessed as bacterial growth inhibition incubated for 18 hrs by CLSI based micro-dilution broth method; assay type: functional
Streptococcus pyogenes = assay: Antibacterial activity against Streptococcus pyogenes ATCC 12344 assessed as bacterial growth inhibition incubated for 18 hrs by micro-dilution broth method; assay type: functional
Staphylococcus aureus = assay: Antibacterial activity against Staphylococcus aureus ATCC 25923 assessed as bacterial growth inhibition incubated for 18 hrs by micro-dilution broth method; assay type: functional
Klebsiella pneumoniae [3] = assay: Antibacterial activity against Klebsiella pneumoniae ATCC 13833 assessed as bacterial growth inhibition incubated for 18 hrs by micro-dilution broth method; assay type: functional
Bacillus subtilis = assay: Antibacterial activity against Bacillus subtilis ATCC 6633 assessed as bacterial growth inhibition incubated for 18 hrs by CLSI based micro-dilution broth method; assay type: functional
Pseudomonas aeruginosa = assay: Antibacterial activity against Pseudomonas aeruginosa ATCC 27853 assessed as bacterial growth inhibition incubated for 18 hrs by micro-dilution broth method; assay type: functional
Lipid bilayer [4] = assay: Binding affinity to bacterial membrane mimic POPG large unilamellar vesicle assessed as bathochromic shift at 125 uM measured at t = 0 by UV-Vis spectrophotometric analysis
Enterococcus faecalis = assay: Antibacterial activity against Enterococcus faecalis ATCC 19433 assessed as bacterial growth inhibition incubated for 18 hrs by micro-dilution broth method; assay type: functional
Acinetobacter baumannii [5] = assay: Antibacterial activity against Acinetobacter baumannii AC-54/97 assessed as bacterial growth inhibition incubated for 18 hrs by CLSI based micro-dilution broth method; assay type: functional
Acinetobacter baumannii [6] = assay: Antibacterial activity against Acinetobacter baumannii ATCC 17978 assessed as bacterial growth inhibition incubated for 18 hrs by micro-dilution broth method; assay type: functional
[7] = Hemolytic activity against human RBC at 64 ug/ml incubated for 30 mins (reference value: 0%); assay type: toxicity, cell-based, Erythrocyte; conditions: human red blood cells (erythrocytes), at 64 µg/mL, read-out: Activity
[8] = Hemolytic activity against human RBC at 2 ug/ml incubated for 30 mins (reference value: 0%); assay type: toxicity, cell-based, Erythrocyte; conditions: human red blood cells (erythrocytes), at 2 µg/mL, read-out: Activity
Cell membrane [9] = assay: Disruption of membrane integrity in Bacillus subtilis ATCC 6633 assessed as increase in PI uptake at 16 ug/ml measured after 15 mins by SYTO9/PI staining based fluorometric analysis; conditions: dose 16.0 µg/ml
[10] = Hemolytic activity against human RBC at 1 ug/ml incubated for 30 mins (reference value: 0%); assay type: toxicity, cell-based, Erythrocyte; conditions: human red blood cells (erythrocytes), at 1 µg/mL, read-out: Activity
Cell membrane [11] = assay: Disruption of membrane integrity in Staphylococcus aureus ATCC 25923 assessed as increase in PI uptake at 16 ug/ml measured after 1 hr by SYTO9/PI staining based fluorometric analysis; conditions: dose 16.0 µg/ml
Cell membrane [12] = assay: Disruption of membrane integrity in Escherichia coli MG1655 assessed as increase in PI uptake at 16 ug/ml measured after 1 hr by SYTO9/PI staining based fluorometric analysis; assay type: subcellular; conditions: dose 16.0 µg/ml
Cell membrane [13] = assay: Disruption of membrane integrity in Enterococcus faecalis ATCC 19433 assessed as increase in PI uptake at 16 ug/ml measured after 1 hr by SYTO9/PI staining based fluorometric analysis; assay type: subcellular; conditions: dose 16.0 µg/ml
[14] = Apparent permeability of the compound across bacterial inner membrane mimic pure POPG in PBS buffer assessed as membrane retention at pH 7.4 incubated for 5 hrs by PAMPA based UV-Vis spectrophotometric analysis; assay type: ADME, cell membranes; conditions: pH 7.4, 5 h
Cell membrane [15] = assay: Disruption of membrane integrity in Bacillus subtilis ATCC 6633 assessed as increase in PI uptake at 16 ug/ml measured after 1 hr by SYTO9/PI staining based fluorometric analysis; assay type: subcellular; conditions: dose 16.0 µg/ml
Cell membrane [16] = assay: Disruption of membrane integrity in Acinetobacter baumannii ATCC 17978 assessed as increase in PI uptake at 16 ug/ml measured after 15 mins by SYTO9/PI staining based fluorometric analysis; conditions: dose 16.0 µg/ml
Cell membrane [17] = assay: Disruption of membrane integrity in Pseudomonas aeruginosa ATCC 27853 assessed as increase in PI uptake at 16 ug/ml measured every 15 mins for 6 hrs by SYTO9/PI staining based fluorometric analysis; conditions: dose 16.0 µg/ml
[18] = Hemolytic activity against human RBC at 32 ug/ml incubated for 30 mins (reference value: 0%); assay type: toxicity, cell-based, Erythrocyte; conditions: human red blood cells (erythrocytes), at 32 µg/mL, read-out: Activity
[19] = Apparent permeability of the compound across bacterial inner membrane mimic POPE/POPG (6:4) in PBS buffer assessed as membrane retention at pH 7.4 incubated for 5 hrs by PAMPA based UV-Vis spectrophotometric analysis; assay type: ADME, cell membranes; conditions: pH 7.4, 5 h
Cell membrane [20] = assay: Disruption of membrane integrity in Acinetobacter baumannii ATCC 17978 assessed as increase in PI uptake at 16 ug/ml measured after 1 hr by SYTO9/PI staining based fluorometric analysis; assay type: subcellular; conditions: dose 16.0 µg/ml
[21] = Hemolytic activity against human RBC at 8 ug/ml incubated for 30 mins (reference value: 0%); assay type: toxicity, cell-based, Erythrocyte; conditions: human red blood cells (erythrocytes), at 8 µg/mL, read-out: Activity
Cell membrane [22] = assay: Disruption of membrane integrity in Enterococcus faecalis ATCC 19433 assessed as increase in PI uptake at 16 ug/ml measured after 15 mins by SYTO9/PI staining based fluorometric analysis; conditions: dose 16.0 µg/ml
[23] = Apparent permeability of the compound across bacterial inner membrane mimic POPE/POPG (6:4) in PBS buffer at pH 7.4 incubated for 5 hrs by PAMPA based UV-Vis spectrophotometric analysis; assay type: ADME
Cell membrane [24] = assay: Disruption of membrane integrity in Pseudomonas aeruginosa ATCC 27853 assessed as increase in PI positive cells at 16 ug/ml measured after 1 hr by SYTO9/PI staining based confocal laser scanning microscope analysis; assay type: subcellular; conditions: dose 16.0 µg/ml
Cell membrane [25] = assay: Disruption of membrane integrity in Escherichia coli MG1655 assessed as increase in PI uptake at 16 ug/ml measured every 15 mins for 6 hrs by SYTO9/PI staining based fluorometric analysis; conditions: dose 16.0 µg/ml
Cell membrane [26] = assay: Disruption of membrane integrity in Enterococcus faecalis ATCC 19433 assessed as increase in PI positive cells at 16 ug/ml measured after 1 hr by SYTO9/PI staining based confocal laser scanning microscope analysis; assay type: subcellular; conditions: dose 16.0 µg/ml
Cell membrane [27] = assay: Disruption of membrane integrity in Escherichia coli MG1655 assessed as increase in PI positive cells at 16 ug/ml measured after 1 hr by SYTO9/PI staining based confocal laser scanning microscope analysis; assay type: subcellular; conditions: dose 16.0 µg/ml
Cell membrane [28] = assay: Disruption of membrane integrity in Staphylococcus aureus ATCC 25923 assessed as increase in PI uptake at 16 ug/ml measured every 15 mins for 6 hrs by SYTO9/PI staining based fluorometric analysis; assay type: subcellular; conditions: dose 16.0 µg/ml
[29] = Hemolytic activity against human RBC at 16 ug/ml incubated for 30 mins relative to control; assay type: toxicity, cell-based, Erythrocyte; conditions: human red blood cells (erythrocytes), at 16 µg/mL, read-out: Activity
[30] = Apparent permeability of the compound across bacterial inner membrane mimic pure POPG in PBS buffer at pH 7.4 incubated for 5 hrs by PAMPA based UV-Vis spectrophotometric analysis; assay type: ADME
Cell membrane [31] = assay: Disruption of membrane integrity in Acinetobacter baumannii ATCC 17978 assessed as increase in PI positive cells at 16 ug/ml measured after 1 hr by SYTO9/PI staining based confocal laser scanning microscope analysis; conditions: dose 16.0 µg/ml
Cell membrane [32] = assay: Disruption of membrane integrity in Pseudomonas aeruginosa ATCC 27853 assessed as increase in PI uptake at 16 ug/ml measured after 1 hr by SYTO9/PI staining based fluorometric analysis; assay type: subcellular; conditions: dose 16.0 µg/ml
[33] = Hemolytic activity against human RBC at 4 ug/ml incubated for 30 mins (reference value: 0%); assay type: toxicity, cell-based, Erythrocyte; conditions: human red blood cells (erythrocytes), at 4 µg/mL, read-out: Activity
Cell membrane [34] = assay: Disruption of membrane integrity in Bacillus subtilis ATCC 6633 assessed as increase in PI positive cells at 16 ug/ml measured after 1 hr by SYTO9/PI staining based confocal laser scanning microscope analysis; assay type: subcellular; conditions: dose 16.0 µg/ml
Cell membrane [35] = assay: Disruption of membrane integrity in Staphylococcus aureus ATCC 25923 assessed as increase in PI positive cells at 16 ug/ml measured after 1 hr by SYTO9/PI staining based confocal laser scanning microscope analysis; assay type: subcellular; conditions: dose 16.0 µg/ml
[36] = Apparent permeability of the compound across bacterial inner membrane mimic PC-phospholipids in PBS buffer at pH 7.4 incubated for 5 hrs by PAMPA based UV-Vis spectrophotometric analysis; assay type: ADME
[37] = Apparent permeability of the compound across bacterial inner membrane mimic PC-phospholipids in PBS buffer assessed as membrane retention at pH 7.4 incubated for 5 hrs by PAMPA based UV-Vis spectrophotometric analysis; assay type: ADME, cell membranes; conditions: pH 7.4, 5 h

N=C(N)NCCCCCCCCN(CCCCCCCCN)C(=O)N(CCCCCCCCNC(=N)N)CCCCCCCCNC(=N)N
MBC (Enterobacter cloacae): 8 µg/mL (≈ 11.5 µM)
MIC (Enterobacter cloacae): 8 µg/mL (≈ 11.5 µM)
MIC (Escherichia coli): 2 µg/mL (≈ 2.88 µM)
Activity (Lipid bilayer [1]): Active
MBC (Klebsiella pneumoniae [2]): 16 µg/mL (≈ 23 µM)
MIC (Klebsiella pneumoniae [2]): 16 µg/mL (≈ 23 µM)
MIC (Streptococcus pyogenes): 0.25 µg/mL (≈ 0.36 µM)
MIC (Staphylococcus aureus): 1 µg/mL (≈ 1.44 µM)
MIC (Klebsiella pneumoniae [3]): 8 µg/mL (≈ 11.5 µM)
MIC (Bacillus subtilis): 1 µg/mL (≈ 1.44 µM)
MIC (Pseudomonas aeruginosa): 16 µg/mL (≈ 23 µM)
Activity (Lipid bilayer [4]): Active
MIC (Enterococcus faecalis): 4 µg/mL (≈ 5.75 µM)
MBC (Acinetobacter baumannii [5]): 8 µg/mL (≈ 11.5 µM)
MIC (Acinetobacter baumannii [5]): 8 µg/mL (≈ 11.5 µM)
MIC (Acinetobacter baumannii [6]): 16 µg/mL (≈ 23 µM)

N=C(N)NCCCCCCCCN(CCCCCCCCNC(=N)NCC1CC1)C(=O)N(CCCCCCCCNC(=N)N)CCCCCCCCNC(=N)NCC1CC1
hemolysis at 0.5 h, 64 ug/ml [7]: 3.4%
hemolysis at 0.5 h, 2 ug/ml [8]: 0.2%
Activity (Cell membrane [9]): Active
hemolysis at 0.5 h, 1 ug/ml [10]: 0%
Activity (Lipid bilayer [1]): Active
Activity (Cell membrane [11]): Active
Activity (Cell membrane [12]): Active
Activity (Cell membrane [13]): Active
R% [14]: 46.1%
Activity (Cell membrane [15]): Active
Activity (Cell membrane [16]): Active
Activity (Cell membrane [17]): Active
hemolysis at 0.5 h, 32 ug/ml [18]: 2%
R% [19]: 42.4%
Activity (Cell membrane [20]): Active
hemolysis at 0.5 h, 8 ug/ml [21]: 0.8%
Activity (Cell membrane [22]): Active
Papp at 5 h [23]: 0.74 ×10⁻⁶ cm/s
Activity (Cell membrane [24]): Active
Activity (Cell membrane [25]): Active
Activity (Cell membrane [26]): Active
Activity (Cell membrane [27]): Active
Activity (Cell membrane [28]): Active
hemolysis at 0.5 h, 16 ug/ml [29]: 1.2%
Papp at 5 h [30]: 1.88 ×10⁻⁶ cm/s
Activity (Cell membrane [31]): Active
Activity (Lipid bilayer [4]): Active
Activity (Cell membrane [32]): Active
hemolysis at 0.5 h, 4 ug/ml [33]: 0.4%
Activity (Cell membrane [34]): Active
Activity (Cell membrane [35]): Active

N=C(N)NCCCCCCCCN(CCCCCCCCN)C(=O)N(CCCCCCCCN)CCCCCCCCNC(=N)N.O=C(O)C(F)(F)F
hemolysis at 0.5 h, 64 ug/ml [7]: 2%
hemolysis at 0.5 h, 2 ug/ml [8]: 0%
Activity (Cell membrane [9]): Active
MIC (Escherichia coli): 2 µg/mL
hemolysis at 0.5 h, 1 ug/ml [10]: 0%
Activity (Lipid bilayer [1]): Active
Activity (Cell membrane [11]): Active
Activity (Cell membrane [12]): Active
Activity (Cell membrane [13]): Active
R% [14]: 52.4%
Papp at 5 h [36]: 0.21 ×10⁻⁶ cm/s
Activity (Cell membrane [15]): Active
Activity (Cell membrane [16]): Active
Activity (Cell membrane [17]): Active
hemolysis at 0.5 h, 32 ug/ml [18]: 1.6%
R% [19]: 47.3%
MIC (Streptococcus pyogenes): 0.25 µg/mL
MIC (Staphylococcus aureus): 0.5 µg/mL
R% [37]: 36.3%
Activity (Cell membrane [20]): Active
MIC (Klebsiella pneumoniae [3]): 16 µg/mL
hemolysis at 0.5 h, 8 ug/ml [21]: 0%
Activity (Cell membrane [22]): Active
Papp at 5 h [23]: 0.18 ×10⁻⁶ cm/s
Activity (Cell membrane [24]): Active
Activity (Cell membrane [25]): Active
Activity (Cell membrane [26]): Active
Activity (Cell membrane [27]): Active
Activity (Cell membrane [28]): Active
hemolysis at 0.5 h, 16 ug/ml [29]: 0.6%
Papp at 5 h [30]: 0.19 ×10⁻⁶ cm/s
Activity (Cell membrane [31]): Active
MIC (Bacillus subtilis): 0.5 µg/mL
MIC (Pseudomonas aeruginosa): 32 µg/mL
Activity (Lipid bilayer [4]): Active
MIC (Enterococcus faecalis): 8 µg/mL
Activity (Cell membrane [32]): Active
hemolysis at 0.5 h, 4 ug/ml [33]: 0%
Activity (Cell membrane [34]): Active
MIC (Acinetobacter baumannii [6]): 16 µg/mL
Activity (Cell membrane [35]): Active
